Common to all, as to type: physicochemical
A short description of data set [1]: Lipid nanoparticle size and polydispersity by dynamic light scattering. To be noted: LNP of lipid/DSPC/cholesterol/PEG-lipid 50:10:38.5:1.5 encapsulating hEPO mRNA. An outline of the steps:
(§1)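 LNPs made from ionizable lipid/DSPC/cholesterol/PEG-lipid (50:10:38.5:1.5) and mRNA in citrate pH 4 by microfluidic mixing, lipid:mRNA about 10:1–30:1 w/w, then dialysed into DPBS and filtered. Size and PDI measured by DLS in backscatter mode; encapsulation efficiency measured by RiboGreen assay.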

A short description of data set [2]: Apparent pKa of LNP formulations, TNS fluorescence assay. The conditions noted are these: LNP cationic lipid/DSPC/cholesterol/DMG-PEG 50/10/38.5/1.5 mol %. An outline of the steps: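 LNPs (cationic lipid/DSPC/cholesterol/DMG-PEG 50/10/38.5/1.5 mol %) diluted to 0.1 mg/mL total lipid in citrate/phosphate/borate/NaCl buffers spanning pH 3–9 with TNS. Fluorescence (ex 325, em 435 nm) read at room temperature; pKa taken as the pH at half-maximal intensity from sigmoidal fit.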

Data set [3] can be described thus: Encapsulation efficiency of lipid nanoparticles, Quant-it Ribogreen RNA assay. To be noted: LNP of lipid/DSPC/cholesterol/PEG-lipid 50:10:38.5:1.5 encapsulating hEPO mRNA. An outline of the steps: as §1

With `CCCCCCCCC(CCCCCCCC)COC(=O)CCCCCN(CCO)CCN(CCCCCC(=O)OCC(CCCCCCCC)CCCCCCCC)C1CC(OC)C1` (stereo not shown) [Compound 67], in data set [1], the polydispersity amounted to 0.023 and the “size (nm)” value was 75.57 nm. Also, the “Apparent Pka” value in data set [2] turned out to be 5.980. The “Encapsulation Efficiency” value in data set [3] turned out to be 95.1%.
For `CCCCCCCCCCCOC(=O)CCCCCN(CCN(CCO)CCCCCC(=O)OCC(CCCCCCCC)CCCCCCCC)C1CC(OC)C1` (stereo not shown) [Compound 54], in that order: 0.065, 77.99 nm, 6.51 and 93.4%.
In the same order, the values of `CCCCCCCCC(CCCCCCCC)COC(=O)CCCCCN(CCO)CCN(CC=C(C)C)CCOCCC(=O)OCC(CCCCCCCC)CCCCCCCC` [Compound 123] are 0.152, 59.28 nm, 6.336 and 94.58%.
On to `CCCCCCCCC(CCCCCC)CNC(=O)CCCCCN(CCO)CCN(CCCCC(COC(=O)CCCCCCC)COC(=O)CCCCCCC)C1CC1` (stereo not shown) [Compound 155], for which, in data set [1], the polydispersity amounted to 0.071 and the “size (nm)” value stood at 70.67 nm. Moreover, the “Apparent Pka” value in data set [2] came out at 6.28. The “Encapsulation Efficiency” value in data set [3] was 89.57%.
Turning to `CCCCCCCCC(CCCCCCCC)COC(=O)CCCCCN(C/C=C/CN(CCCCCC(=O)OCC(CCCCCCCC)CCCCCCCC)C1CCC1)CCO` [Compound 65], in data set [1], the polydispersity is given as 0.044 and the “size (nm)” value was determined as 104.2 nm. Also, in data set [2], the “Apparent Pka” value was determined as 6.443. In data set [3], the “Encapsulation Efficiency” value stood at 93.10%.
For the molecule `CCCCCCCCC(CCCCCCCC)COC(=O)CCCCCN(CC=C(C)C)CCN(CCO)CCCCCC(=O)OCC(CCCCCCCC)CCCCCCCC` [Compound 42], in data set [1], the polydispersity worked out at 0.046 and the “size (nm)” value is given as 66.04 nm. The “Apparent Pka” value in data set [2] is listed as 6.159. The “Encapsulation Efficiency” value in data set [3] was 90.1%.
`CCCCCCC(=O)OCC(CCCCN(CCO)CCN(CCCCC(COC(=O)CCCCCC)COC(=O)CCCCCC)C1CCC1)COC(=O)CCCCCC` [Compound 165]: in data set [1], the polydispersity turned out to be 0.125 and the “size (nm)” value amounted to 131.30 nm. The “Apparent Pka” value in data set [2] turned out to be 6.183. The “Encapsulation Efficiency” value in data set [3] is 75.66%.
For `CCCCCCCCC(CCCCCCCC)COC(=O)CCCCCN(CCO)CCN(CCCCCC(=O)OCCCCCC)C1CCCCC1` [Compound 101], in that order: 0.078, 98.67 nm, 6.423 and 87.20%.
For `CCCCCCCCC(CCCCCCCC)COC(=O)CCCCCN(CCO)CCN(CCCCCC(=O)OCC(CCCCCCCC)CCCCCCCC)Cc1ccc([N+](=O)[O-])cc1` [Compound 38], in that order: 0.092, 54.42 nm, 6.253 and 89.8%.
For `CCCCCCCCC(CCCCCC)CNC(=O)CCCCCCN(CCO)CCN(CCCCC(COC(=O)CCCCCCC)COC(=O)CCCCCCC)C1CCCCCC1` (stereo not shown) [Compound 232], in that order: 0.031, 77.78 nm, 6.567 and 92.47%.
For the molecule `CCCCCCCCC(CCCCCC)CNC(=O)CCCCCCN(CCO)CCN(CCCCC(COC(=O)CCCCCCC)COC(=O)CCCCCCC)C1CCCC1` (stereo not shown) [Compound 230], in data set [1], the polydispersity stood at 0.051 and the “size (nm)” value came to 89.46 nm. In data set [2], the “Apparent Pka” value came to 6.742. The “Encapsulation Efficiency” value in data set [3] came to 89.65%.
Regarding `CCCCCCCCC(CCCCCC)CNC(=O)CCCCCN(CCO)CCN(CCCCC(COC(=O)CCCCCCC)COC(=O)CCCCCCC)C1CCCCCC1` (stereo not shown) [Compound 143], in data set [1], the polydispersity amounted to 0.057 and the “size (nm)” value is 69.16 nm. In data set [2], the “Apparent Pka” value is given as 6.687. For the same molecule, the “Encapsulation Efficiency” value in data set [3] was 90.39%.
As to `CCCCCCCCC(CCCCCC)CNC(=O)CCCCN(CCO)CCN(CCCCC(COC(=O)CCCCCCC)COC(=O)CCCCCCC)C1CCCCCC1` (stereo not shown) [Compound 229], in data set [1], the polydispersity is 0.042 and the “size (nm)” value was found to be 77.73 nm. Further, in data set [2], the “Apparent Pka” value is 6.849. Further, the “Encapsulation Efficiency” value in data set [3] stood at 92.04%.
`CCCCCCCCC(CCCCCCCC)CNC(=O)CCCCCN(CCO)CCN(CCCCCC(=O)NCC(CCCCCCCC)CCCCCCCC)C1CCCC1` [Compound 12]: in data set [1], the polydispersity was 0.062 and the “size (nm)” value came to 58.17 nm. In data set [2], the “Apparent Pka” value is recorded as 6.685. Also, in data set [3], the “Encapsulation Efficiency” value turned out to be 89.5%.
On to `CCCCCCCCC(CCCCCCCC)COC(=O)CCCCCN(CCN(CCO)CCOCCC(=O)OCC(CCCCCCCC)CCCCCCCC)C1CCC1` [Compound 110], for which, in data set [1], the polydispersity is reported as 0.042 and the “size (nm)” value is given as 84.07 nm. Further, the “Apparent Pka” value in data set [2] came out at 6.293. The “Encapsulation Efficiency” value in data set [3] came out at 93.11%.
With `CCCCCCCCC(CCCCCCCC)CNC(=O)CCCCCN(CCO)CCN(CCCCCC(=O)OCC(CCCCCCCC)CCCCCCCC)C1CCC1` [Compound 15], in data set [1], the polydispersity is given as 0.022 and the “size (nm)” value is 65.95 nm. Besides, the “Apparent Pka” value in data set [2] is given as 6.724. Further, in data set [3], the “Encapsulation Efficiency” value was 86.0%.
As for `CCCCCCCCC(CCCCCCCC)COC(=O)CCOCCN(CCO)CCN(CCOCCC(=O)OCC(CCCCCCCC)CCCCCCCC)C1CCC1` [Compound 112], in data set [1], the polydispersity was 0.059 and the “size (nm)” value was found to be 77.33 nm. Further, the “Apparent Pka” value in data set [2] amounted to 6.343. Also, the “Encapsulation Efficiency” value in data set [3] is 93.15%.
Regarding `CCCCCCCCC(CCCCCCCC)COC(=O)CCCCCN(C)CCN(CCO)CCCCCC(=O)OCC(CCCCCCCC)CCCCCCCC` [Compound 26], in data set [1], the polydispersity worked out at 0.13 and the “size (nm)” value amounted to 63.47 nm. In addition, in data set [2], the “Apparent Pka” value was 7.024. Also, in data set [3], the “Encapsulation Efficiency” value turned out to be 97.57%.
As to `CCCCCCCCC(CCCCCC)CNC(=O)CCCCCN(CCO)CCN(CCCCC(COC(=O)CCCCCCC)COC(=O)CCCCCCC)C1CCC1` (stereo not shown) [Compound 136], in data set [1], the polydispersity is 0.040 and the “size (nm)” value turned out to be 84.74 nm. Besides, the “Apparent Pka” value in data set [2] was found to be 6.831. Also, the “Encapsulation Efficiency” value in data set [3] amounted to 88.64%.
For `CCCCCCCCCCCOC(=O)CCCCCN(CCN(CCO)CCCCC(COC(=O)CCCCCCC)COC(=O)CCCCCCC)C1CCC1` [Compound 182], in that order: 0.09, 99.97 nm, 6.862 and 91.00%.
Regarding `CCCCCCCCCCCC(=O)NCCCCCN(CCN(CCO)CCCCCNC(=O)CC(CCCCCCCC)CCCCCCCC)C1CCCCC1` [Compound 58], in data set [1], the polydispersity was determined as 0.1 and the “size (nm)” value was 110 nm. Also, the “Apparent Pka” value in data set [2] is listed as 7.327. Besides, the “Encapsulation Efficiency” value in data set [3] is 97.7%.
For `CCCCCCCCCCCOC(=O)CCCCCN(CCO)CCN(CCCCCC(=O)OCC(CCCCCCCC)CCCCCCCC)C1CCCCC1` [Compound 45], in that order: 0.051, 63.5 nm, 6.402 and 90.9%.

These data come from patent US20230348362A1, “LIPID COMPOUNDS AND LIPID NANOPARTICLE COMPOSITIONS” (Suzhou Abogen Biosciences Co., Ltd., priority 2021, published 2023).
